# Source: publication PMC4864329, “In vitro and in vivo efficacy, toxicity, bio-distribution and resistance selection of a novel antibacterial drug candidate” (Scientific Reports, 2016)
# Values joined by “and” are separate entries in the source; they are usually repeats but may differ in a detail not shown here. Equal values may be shown once. Read-outs that look alike come from different tables or passages of the source.
# Tested on: Klebsiella pneumoniae clinical isolates
# Type: cell-based
# Experimental: Minimum inhibitory concentrations (MICs) of SET-M33L were determined against 76 clinical isolates of Pseudomonas aeruginosa and 73 clinical isolates of Klebsiella pneumoniae. The isolates were selected on the basis of their resistance phenotypes and major antibiotic resistance determinants, including resistance to colistin and carriage of carbapenemase-encoding genes (Table 1 and supplemental Tables S1 and S2).
# MIC values were determined against a large collection of clinical isolates. Most isolates were collected during routine susceptibility testing procedures at the Clinical Microbiology Unit of Careggi University Hospital in Florence, while specific isolates were selected according to their phenotype or genotype (e.g. carriage of carbapenemase-encoding genes, inclusion in epidemic bacterial clones, resistance to colistin) from a collection of isolates already available at Department of Medical Biotechnologies, University of Siena. Detailed features of each strain, including relevant resistance phenotypes and genotypes were reported in supplemental Tables S1 and S2. MICs were determined in triplicate using a standard microdilution assay according to the guidelines of the Clinical and Laboratory Standards Institute[34]. SET-M33L was assayed using concentrations in the range 0.09–11.2 μM (0.5–64 μg/mL); testing was performed using a bacterial inoculum of 5 × 10^4 CFU/well prepared in cation-supplemented Mueller-Hinton broth (MHB) (Becton Dickinson, Franklin Lakes, NJ, USA) in a final volume of 100 μl. Results were recorded after 18–20 h of incubation at 35 °C.
substance,measurement,setting,value
colistin sulfate,MIC,"isolate SI_K1, CARB, β/I, ESC, FQ, AG, COL, blaNDM",32 µg/mL
same,MIC,"isolate SI_K2, CARB, ESC, FQ, AG, blaCTX-M",≤ 0.5 µg/mL
same,MIC,"isolate SI_K3, CARB, β/I, ESC, AG, blaVIM",0.5 µg/mL
same,MIC,"isolate SI_K4, CARB, β/I, ESC, FQ, blaOXA-48",0.5 µg/mL
same,MIC,"isolate SI_K5, CARB, β/I, ESC, FQ, blaOXA-48",0.5 µg/mL
same,MIC,"isolate SI_K6, CARB, β/I, ESC, FQ, AG, blaKPC",0.5 µg/mL
same,MIC,"isolate SI_K7, CARB, β/I, ESC, FQ, blaKPC",0.5 µg/mL
same,MIC,"isolate SI_K8, CARB, β/I, ESC, FQ, AG, blaKPC",≤ 0.5 µg/mL
same,MIC,"isolate SI_K9, CARB, β/I, ESC, FQ, AG, blaKPC",2 µg/mL
same,MIC,"isolate SI_K10, CARB, β/I, ESC, FQ, COL, blaKPC",> 32 µg/mL
same,MIC,"isolate SI_K11, CARB, β/I, ESC, FQ, AG, blaKPC",≤ 0.5 µg/mL
same,MIC,"isolate SI_K12, phenotype none",≤ 0.5 µg/mL
same,MIC,"isolate SI_K13, β/I, ESC, FQ, AG, ESBL",≤ 0.5 µg/mL
same,MIC,"isolate SI_K14, phenotype none",≤ 0.5 µg/mL
same,MIC,"isolate SI_K15, phenotype none",≤ 0.5 µg/mL
same,MIC,"isolate SI_K16, phenotype none",≤ 0.5 µg/mL
same,MIC,"isolate SI_K17, CARB, β/I, ESC, FQ, AG, COL, blaKPC",> 32 µg/mL
same,MIC,"isolate SI_K18, phenotype none",≤ 0.5 µg/mL
same,MIC,"isolate SI_K19, ESC, ESBL",≤ 0.5 µg/mL
same,MIC,"isolate SI_K20, phenotype none",≤ 0.5 µg/mL
same,MIC,"isolate SI_K21, phenotype none",≤ 0.5 µg/mL
same,MIC,"isolate SI_K22, phenotype none",≤ 0.5 µg/mL
same,MIC,"isolate SI_K23, phenotype none",≤ 0.5 µg/mL
same,MIC,"isolate SI_K24, phenotype none",≤ 0.5 µg/mL
same,MIC,"isolate SI_K25, phenotype none",≤ 0.5 µg/mL
same,MIC,"isolate SI_K26, phenotype none",≤ 0.5 µg/mL
same,MIC,"isolate SI_K27, phenotype none",≤ 0.5 µg/mL
same,MIC,"isolate SI_K28, β/I, ESC, FQ, AG, ESBL",≤ 0.5 µg/mL
same,MIC,"isolate SI_K29, ESC, AG, blaCTX-M",0.5 µg/mL
same,MIC,"isolate SI_K30, phenotype none",≤ 0.5 µg/mL
same,MIC,"isolate SI_K31, β/I, ESC, FQ, AG, COL, ESBL",16 µg/mL
same,MIC,"isolate SI_K32, phenotype none",≤ 0.5 µg/mL
same,MIC,"isolate SI_K33, phenotype none",≤ 0.5 µg/mL
same,MIC,"isolate SI_K34, phenotype none",≤ 0.5 µg/mL
same,MIC,"isolate SI_K35, CARB, β/I, ESC, FQ, AG, blaKPC",≤ 0.5 µg/mL
same,MIC,"isolate SI_K36, CARB, β/I, ESC, FQ, AG, COL, blaKPC",> 32 µg/mL
same,MIC,"isolate SI_K37, phenotype none",≤ 0.5 µg/mL
same,MIC,"isolate SI_K38, phenotype none",≤ 0.5 µg/mL
same,MIC,"isolate SI_K39, phenotype none",≤ 0.5 µg/mL
same,MIC,"isolate SI_K40, CARB, β/I, ESC, FQ, AG, COL, blaKPC",> 32 μg/mL and > 24 μM
same,MIC,"isolate SI_K41, β/I, ESC, FQ, AG, ESBL",≤ 0.5 μg/mL and ≤ 0.4 μM
same,MIC,"isolate SI_K42, phenotype none",≤ 0.5 μg/mL and ≤ 0.4 μM
same,MIC,"isolate SI_K43, phenotype none",≤ 0.5 μg/mL and ≤ 0.4 μM
same,MIC,"isolate SI_K44, phenotype none",≤ 0.4 μM and ≤ 0.5 μg/mL
same,MIC,"isolate SI_K45, FQ",≤ 0.5 μg/mL and ≤ 0.4 μM
same,MIC,"isolate SI_K46, β/I",≤ 0.5 μg/mL and ≤ 0.4 μM
same,MIC,"isolate SI_K47, phenotype none",≤ 0.5 μg/mL and ≤ 0.4 μM
same,MIC,"isolate SI_K48, phenotype none",≤ 0.5 μg/mL and ≤ 0.4 μM
same,MIC,"isolate SI_K49, phenotype none",≤ 0.5 μg/mL and ≤ 0.4 μM
same,MIC,"isolate SI_K50, phenotype none",≤ 0.5 μg/mL and ≤ 0.4 μM
same,MIC,"isolate SI_K51, phenotype none",≤ 0.5 μg/mL and ≤ 0.4 μM
same,MIC,"isolate SI_K52, phenotype none",≤ 0.5 μg/mL and ≤ 0.4 μM
same,MIC,"isolate SI_K53, β/I, ESC, FQ, ESBL",≤ 0.5 μg/mL and ≤ 0.4 μM
same,MIC,"isolate SI_K54, phenotype none",≤ 0.5 μg/mL and ≤ 0.4 μM
same,MIC,"isolate SI_K55, β/I, ESC, FQ, AG, ESBL",≤ 0.5 μg/mL and ≤ 0.4 μM
same,MIC,"isolate SI_K56, phenotype none",≤ 0.5 μg/mL and ≤ 0.4 μM
same,MIC,"isolate SI_K57, β/I, FQ",≤ 0.5 μg/mL and ≤ 0.4 μM
same,MIC,"isolate SI_K58, phenotype none",≤ 0.5 μg/mL and ≤ 0.4 μM
same,MIC,"isolate SI_K59, phenotype none",≤ 0.5 μg/mL and ≤ 0.4 μM
same,MIC,"isolate SI_K60, phenotype none",≤ 0.5 μg/mL and ≤ 0.4 μM
same,MIC,"isolate SI_K61, CARB, β/I, ESC, FQ",≤ 0.5 μg/mL and ≤ 0.4 μM
same,MIC,"isolate SI_K62, CARB, β/I, ESC, FQ, AG, ESBL",≤ 0.5 μg/mL and ≤ 0.4 μM
same,MIC,"isolate SI_K63, β/I, ESC, FQ, AG, ESBL",≤ 0.5 μg/mL and ≤ 0.4 μM
same,MIC,"isolate SI_K64, phenotype none",≤ 0.5 μg/mL and ≤ 0.4 μM
same,MIC,"isolate SI_K65, phenotype none",≤ 0.5 μg/mL and ≤ 0.4 μM
same,MIC,"isolate SI_K66, β/I, ESC, FQ, AG, ESBL",≤ 0.5 μg/mL and ≤ 0.4 μM
same,MIC,"isolate SI_K67, β/I, ESC, FQ, AG, ESBL",≤ 0.5 μg/mL and ≤ 0.4 μM
same,MIC,"isolate SI_K68, phenotype none",≤ 0.5 μg/mL and ≤ 0.4 μM
same,MIC,"isolate SI_K69, β/I, ESC, FQ, AG, ESBL",≤ 0.5 μg/mL and ≤ 0.4 μM
same,MIC,"isolate SI_K70, β/I, ESC, FQ",≤ 0.5 μg/mL and ≤ 0.4 μM
same,MIC,"isolate SI_K71, CARB, β/I, ESC, FQ, blaKPC",≤ 0.5 μg/mL and ≤ 0.4 μM
same,MIC,"isolate SI_K72, CARB, β/I, ESC, FQ, AG, COL, blaNDM",> 32 μg/mL and > 24 μM
same,MIC,"isolate SI_K73, CARB, ESC, FQ, AG, blaCTX-M",≤ 0.5 μg/mL and ≤ 0.4 μM
